This passage reports % of engagement and % of control results from ChEMBL document CHEMBL5465560, “Selectivity Literature for EUbOPEN Chemogenomic Library” (2024).

In assay [1] the target is Tyrosine-protein kinase JAK1 (Homo sapiens, UniProt P23458). Put plainly: Selectivity interaction (Kinase panel (KiNativ target engagement assay in Jurkat cells)) EUB0001635a JAK1. The class given is cell-based. Particulars: Selectivity number of off-targets 0.0, Selectivity number of targets 233.0, Source Knowledge https://www.sciencedirect.com/science/article/pii/S2451945619300674?via%3Dihub, at 1 µM.
Sequence of Tyrosine-protein kinase JAK1 (P23458 whole entry): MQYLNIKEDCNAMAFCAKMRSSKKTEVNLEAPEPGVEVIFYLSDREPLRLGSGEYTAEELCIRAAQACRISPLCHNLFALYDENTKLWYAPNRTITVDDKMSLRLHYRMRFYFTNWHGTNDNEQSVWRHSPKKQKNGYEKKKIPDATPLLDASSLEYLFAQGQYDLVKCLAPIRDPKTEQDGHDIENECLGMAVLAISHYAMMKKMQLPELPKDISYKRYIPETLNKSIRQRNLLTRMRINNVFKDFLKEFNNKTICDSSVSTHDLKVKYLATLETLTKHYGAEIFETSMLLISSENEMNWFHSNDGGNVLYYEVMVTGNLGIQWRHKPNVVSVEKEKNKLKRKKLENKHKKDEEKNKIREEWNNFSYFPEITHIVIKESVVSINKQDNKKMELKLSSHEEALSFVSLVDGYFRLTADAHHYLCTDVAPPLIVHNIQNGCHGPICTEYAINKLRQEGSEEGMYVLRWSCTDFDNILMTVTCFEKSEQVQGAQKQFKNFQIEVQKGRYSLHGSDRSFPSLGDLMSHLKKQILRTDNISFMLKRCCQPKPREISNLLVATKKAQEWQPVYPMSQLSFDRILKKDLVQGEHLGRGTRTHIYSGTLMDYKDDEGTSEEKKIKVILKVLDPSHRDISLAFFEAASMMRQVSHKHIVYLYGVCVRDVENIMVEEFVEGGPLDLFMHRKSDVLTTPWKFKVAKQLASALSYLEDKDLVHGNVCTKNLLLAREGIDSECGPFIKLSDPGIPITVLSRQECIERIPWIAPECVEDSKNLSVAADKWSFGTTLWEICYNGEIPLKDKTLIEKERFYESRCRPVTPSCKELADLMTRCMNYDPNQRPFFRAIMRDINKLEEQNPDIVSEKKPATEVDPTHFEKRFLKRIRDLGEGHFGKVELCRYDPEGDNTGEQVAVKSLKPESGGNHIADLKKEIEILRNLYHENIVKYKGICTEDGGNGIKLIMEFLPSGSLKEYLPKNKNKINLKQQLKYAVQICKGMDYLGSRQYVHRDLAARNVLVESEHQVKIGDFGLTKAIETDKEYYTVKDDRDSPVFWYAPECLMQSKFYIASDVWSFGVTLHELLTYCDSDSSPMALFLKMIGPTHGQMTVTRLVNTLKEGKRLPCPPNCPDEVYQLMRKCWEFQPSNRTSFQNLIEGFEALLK

Assay [2] addresses T1, Cyclin-dependent kinase-like 2 (Homo sapiens) (UniProt Q92772).
T1 sequence (whole entry): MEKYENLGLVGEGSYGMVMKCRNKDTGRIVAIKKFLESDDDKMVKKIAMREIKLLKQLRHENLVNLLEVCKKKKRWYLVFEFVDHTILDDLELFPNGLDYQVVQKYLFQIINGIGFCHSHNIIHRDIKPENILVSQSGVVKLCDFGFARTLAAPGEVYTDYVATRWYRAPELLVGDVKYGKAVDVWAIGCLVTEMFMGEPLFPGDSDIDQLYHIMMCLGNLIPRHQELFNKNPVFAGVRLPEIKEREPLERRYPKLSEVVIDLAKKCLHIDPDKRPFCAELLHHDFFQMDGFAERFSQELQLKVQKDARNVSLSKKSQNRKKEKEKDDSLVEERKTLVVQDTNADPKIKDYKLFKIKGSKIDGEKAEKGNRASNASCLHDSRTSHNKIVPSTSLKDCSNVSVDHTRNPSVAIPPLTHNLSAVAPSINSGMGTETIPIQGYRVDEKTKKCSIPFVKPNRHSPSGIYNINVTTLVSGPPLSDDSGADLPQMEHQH
Put plainly: Selectivity interaction (Ambit KINOMEscan and KiNATiv profiling in Jurkat cells) EUB0000090b CDKL2. The class given is cell-based. Particulars: at 1 µM.

Assay [3] deals with cAMP-dependent protein kinase catalytic subunit beta (Homo sapiens) (UniProt P22694). The experiment in a line: Selectivity interaction (KinomeScan (DiscoverX)) EUB0001619a PRKACB. Particulars: at 1 µM.
In assay [4] the target is Ribosomal protein S6 kinase alpha-4 (Homo sapiens) (UniProt O75676). Particulars: at 10 µM.
Sequence of Ribosomal protein S6 kinase alpha-4 (Homo sapiens) (O75676 whole entry, looked up): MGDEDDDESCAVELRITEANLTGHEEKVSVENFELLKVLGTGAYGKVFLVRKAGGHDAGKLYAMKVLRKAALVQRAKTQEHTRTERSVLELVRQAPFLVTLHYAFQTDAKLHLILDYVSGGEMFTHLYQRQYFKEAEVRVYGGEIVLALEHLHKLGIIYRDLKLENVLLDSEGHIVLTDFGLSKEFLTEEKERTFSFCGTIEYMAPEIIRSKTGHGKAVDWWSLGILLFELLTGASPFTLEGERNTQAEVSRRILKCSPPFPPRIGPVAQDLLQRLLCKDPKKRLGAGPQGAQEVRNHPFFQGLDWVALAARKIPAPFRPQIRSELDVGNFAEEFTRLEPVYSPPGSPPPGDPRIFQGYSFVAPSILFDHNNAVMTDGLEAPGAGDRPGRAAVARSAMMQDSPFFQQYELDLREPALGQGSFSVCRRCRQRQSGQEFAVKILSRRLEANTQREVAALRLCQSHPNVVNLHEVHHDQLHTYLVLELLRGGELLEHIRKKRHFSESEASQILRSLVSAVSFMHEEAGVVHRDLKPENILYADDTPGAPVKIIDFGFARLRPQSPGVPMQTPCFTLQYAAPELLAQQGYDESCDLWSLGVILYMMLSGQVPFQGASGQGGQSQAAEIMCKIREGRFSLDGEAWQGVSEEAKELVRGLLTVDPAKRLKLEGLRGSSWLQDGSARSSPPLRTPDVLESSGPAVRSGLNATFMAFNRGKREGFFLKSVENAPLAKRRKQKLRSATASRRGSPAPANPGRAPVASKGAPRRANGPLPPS
Assay [5] deals with Protein kinase C eta type (Homo sapiens) (UniProt P24723). Put plainly: Selectivity interaction (Millipore kinase profiler) EUB0000124b PRKCH. Conditions: at 10 µM.
Sequence of Protein kinase C eta type (Homo sapiens) (P24723 whole entry): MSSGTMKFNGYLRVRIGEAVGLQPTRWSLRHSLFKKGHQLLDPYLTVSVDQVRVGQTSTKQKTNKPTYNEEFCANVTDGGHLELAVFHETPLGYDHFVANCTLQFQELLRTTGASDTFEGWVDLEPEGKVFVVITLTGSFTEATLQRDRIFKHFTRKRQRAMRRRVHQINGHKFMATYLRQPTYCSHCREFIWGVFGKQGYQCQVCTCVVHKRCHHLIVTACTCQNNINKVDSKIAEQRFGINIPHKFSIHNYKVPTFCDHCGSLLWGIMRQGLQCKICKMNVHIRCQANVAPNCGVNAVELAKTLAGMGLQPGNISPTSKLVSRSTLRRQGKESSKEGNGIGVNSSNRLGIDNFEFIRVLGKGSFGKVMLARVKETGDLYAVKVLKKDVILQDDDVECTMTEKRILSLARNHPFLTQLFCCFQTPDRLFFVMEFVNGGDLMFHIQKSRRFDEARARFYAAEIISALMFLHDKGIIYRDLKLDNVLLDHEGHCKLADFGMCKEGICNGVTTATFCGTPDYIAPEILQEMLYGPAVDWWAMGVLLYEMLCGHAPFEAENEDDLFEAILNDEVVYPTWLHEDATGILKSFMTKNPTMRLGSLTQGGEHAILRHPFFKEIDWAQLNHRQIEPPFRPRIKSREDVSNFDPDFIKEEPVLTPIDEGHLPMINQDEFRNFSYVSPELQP
Assay [6] concerns the target Ribosomal protein S6 kinase alpha-6 (Homo sapiens, UniProt Q9UK32). Put plainly: Selectivity interaction (ProQinase) EUB0000171b RPS6KA6.
In assay [7] the target is T2, Dual specificity mitogen-activated protein kinase kinase 3 (Homo sapiens) (UniProt P46734).
T2 sequence (whole entry): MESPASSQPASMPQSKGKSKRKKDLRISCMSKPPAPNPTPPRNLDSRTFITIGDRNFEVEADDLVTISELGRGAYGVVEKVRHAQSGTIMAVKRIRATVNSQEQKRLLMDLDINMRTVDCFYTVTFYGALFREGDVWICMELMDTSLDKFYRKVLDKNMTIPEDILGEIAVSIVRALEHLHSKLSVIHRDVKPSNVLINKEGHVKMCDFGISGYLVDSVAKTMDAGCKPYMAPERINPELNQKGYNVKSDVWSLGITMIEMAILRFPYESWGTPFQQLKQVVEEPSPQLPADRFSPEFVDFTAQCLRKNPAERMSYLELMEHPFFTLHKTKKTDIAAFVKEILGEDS
The experiment in a line: Selectivity interaction (KinomeScan (DiscoverX)) EUB0000045b MAP2K3.

Assay [8] has as its target T3, Serine/threonine-protein kinase Nek5 (Homo sapiens) (UniProt Q6P3R8).
T3 sequence (whole entry): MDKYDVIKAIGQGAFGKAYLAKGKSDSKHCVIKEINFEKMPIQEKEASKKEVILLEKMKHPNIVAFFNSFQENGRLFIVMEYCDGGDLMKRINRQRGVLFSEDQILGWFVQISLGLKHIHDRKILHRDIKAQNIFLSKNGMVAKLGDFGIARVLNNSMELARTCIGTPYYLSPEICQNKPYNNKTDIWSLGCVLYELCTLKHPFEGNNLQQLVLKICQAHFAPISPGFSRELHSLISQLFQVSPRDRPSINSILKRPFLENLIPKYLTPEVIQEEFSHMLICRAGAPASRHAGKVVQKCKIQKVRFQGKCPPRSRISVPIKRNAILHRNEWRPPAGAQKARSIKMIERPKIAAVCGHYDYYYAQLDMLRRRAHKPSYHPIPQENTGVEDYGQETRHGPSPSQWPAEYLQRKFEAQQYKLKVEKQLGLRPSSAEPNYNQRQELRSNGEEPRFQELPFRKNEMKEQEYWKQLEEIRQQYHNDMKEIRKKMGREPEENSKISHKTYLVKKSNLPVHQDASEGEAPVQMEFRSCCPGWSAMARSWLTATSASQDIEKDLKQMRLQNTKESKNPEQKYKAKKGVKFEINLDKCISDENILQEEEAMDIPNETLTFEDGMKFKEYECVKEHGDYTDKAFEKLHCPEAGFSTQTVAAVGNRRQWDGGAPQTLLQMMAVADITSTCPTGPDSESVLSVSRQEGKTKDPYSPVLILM
Put plainly: Selectivity interaction (KinomeScan (DiscoverX)) EUB0000595a NEK5. Particulars: at 10 µM.

Sequence of Ribosomal protein S6 kinase alpha-6 (Q9UK32 whole entry): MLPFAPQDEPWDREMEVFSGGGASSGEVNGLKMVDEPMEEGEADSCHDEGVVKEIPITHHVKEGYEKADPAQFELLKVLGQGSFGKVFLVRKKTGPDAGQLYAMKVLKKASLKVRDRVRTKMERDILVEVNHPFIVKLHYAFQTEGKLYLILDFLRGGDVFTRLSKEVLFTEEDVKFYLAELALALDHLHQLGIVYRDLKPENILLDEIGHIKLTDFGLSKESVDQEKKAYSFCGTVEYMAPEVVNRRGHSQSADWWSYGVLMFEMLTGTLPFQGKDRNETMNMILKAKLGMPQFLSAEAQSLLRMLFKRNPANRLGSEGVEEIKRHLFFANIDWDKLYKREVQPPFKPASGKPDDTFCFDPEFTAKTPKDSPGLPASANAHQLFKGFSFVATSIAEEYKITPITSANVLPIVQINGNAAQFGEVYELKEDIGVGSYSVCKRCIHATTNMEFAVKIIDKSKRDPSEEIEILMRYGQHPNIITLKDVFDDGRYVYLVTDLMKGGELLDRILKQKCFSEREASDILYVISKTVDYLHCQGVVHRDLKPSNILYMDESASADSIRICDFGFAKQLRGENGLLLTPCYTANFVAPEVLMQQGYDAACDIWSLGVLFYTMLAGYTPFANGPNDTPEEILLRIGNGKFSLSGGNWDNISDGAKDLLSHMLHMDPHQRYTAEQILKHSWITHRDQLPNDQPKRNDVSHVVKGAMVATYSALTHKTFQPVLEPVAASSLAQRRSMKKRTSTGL

For the molecule `C=CC(=O)Nc1ccc(C(=O)Nc2[nH]nc3c2CN(C(=O)N[C@H](CN(C)C)c2ccccc2)C3(C)C)cc1`, in assay [1], the % of engagement was 7.9%.

`CN(C)C/C=C/C(=O)Nc1ccc(C(=O)N2CCCC(Nc3ncc(Cl)c(-c4c[nH]c5ccccc45)n3)C2)cc1` (stereo not given) came in with a % of control in assay [2] of 75%.

For `N#Cc1cccc(-c2c[nH]c3ncnc(N4CCOCC4)c23)c1`, the % of control in assay [3] is 84%.

In assay [4], `CCN(CC)CCCCNc1ncc2cc(-c3cc(OC)cc(OC)c3)c(NC(=O)NC(C)(C)C)nc2n1` gave a % of control of 100%.

Molecule `CC(=O)Nc1cccc(-n2c(=O)n(C3CC3)c(=O)c3c(Nc4ccc(I)cc4F)n(C)c(=O)c(C)c32)c1` had a % of control in assay [5] of 107%.

Turning to `C=CC(=O)Nc1cccc(C(=O)Nc2ccc(Nc3cc(-c4[nH]c(SC)nc4C)ccn3)cc2)c1`, the % of control in assay [6] (at 1 µM) stood at 88%; in assay [6] (at 5 µM) it was 68%.

For the molecule `C=CC(=O)Nc1cc(-n2c(=O)ccc3cnc4ccc(-c5ccc(NS(C)(=O)=O)cc5)cc4c32)ccc1C`, the % of control came out at 100% in assay [7] (at 1 µM) and 69% in assay [7] (at 10 µM).

Take `COCC(=O)NC/C=C/c1ccc2ncnc(Nc3ccc(Oc4ccc(C)nc4)c(C)c3)c2c1` [CP-724714]: the % of control in assay [8] came out at 100%.
